In PubChem BioAssay (NCI) one finds TGI and GI50 data, which are given here for ten compounds.

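1) Cells in 96-well plates. 2) Compound, 48 h, 5 concentrations. 3) Linear interpolation between surrounding doses. 4) Unreached endpoint = highest concentration. Abbreviation: GI50, concentration required for 50% inhibition of growth. Definition used: TGI = concentration required for complete inhibition of growth.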

Test systems include DU-145 prostate; HCC-2998 colon; HOP-62 NSCLC; HT29 colon; MDA-MB-435; OVCAR-3 ovarian; PC-3 prostate; RPMI-8226 leukemia; SK-MEL-28 melanoma; T-47D breast.
What all share (assay): NCI anticancer screen, dose series, 48 h

Regarding `O=[N+]([O-])/C=C/c1c(Cl)cccc1Cl`, the TGI turned out to be 20.6 µM with DU-145 prostate; 8.34 µM in the assay on HCC-2998 colon; 13 µM in the assay on HOP-62 NSCLC; 26 µM with HT29 colon; 4.62 µM in the assay on MDA-MB-435; 3.28 µM with OVCAR-3 ovarian. Moreover, the TGI with PC-3 prostate worked out at 5.58 µM; with RPMI-8226 leukemia, 0.514 µM; in the assay with SK-MEL-28 melanoma, 10.9 µM; with T-47D breast, 9.39 µM.
On to `COC(=O)c1c2c(c(C)[n+]([O-])c1C)C(=O)C=C(NCc1ccccc1)C2=O`, for which the GI50 with DU-145 prostate was 1.35 µM; in the assay on HCC-2998 colon, 0.432 µM; with HOP-62 NSCLC, 1.49 µM; in the assay on HT29 colon, 0.384 µM; in the assay with MDA-MB-435 it was 0.202 µM; with OVCAR-3 ovarian, 0.277 µM. Further, the GI50 is 0.379 µM with PC-3 prostate, 1.36 µM in the assay with RPMI-8226 leukemia, 1.63 µM with SK-MEL-28 melanoma and 0.316 µM in the assay with T-47D breast. In addition, the TGI turned out to be 2.68 µM with DU-145 prostate; 1.7 µM in the assay on HCC-2998 colon; 3.19 µM in the assay on HOP-62 NSCLC; 2.78 µM in the assay on HT29 colon; 0.391 µM with MDA-MB-435; 0.791 µM in the assay on OVCAR-3 ovarian. Also, the TGI was 7.34 µM in the assay on PC-3 prostate, 4.28 µM in the assay with RPMI-8226 leukemia, 3.8 µM in the assay with SK-MEL-28 melanoma and 1.59 µM in the assay with T-47D breast.
As to `NC(=N\N=C/c1ccc(O)cc1)/C(N)=N\N=C/c1ccc(O)cc1`, the GI50 in the assay on DU-145 prostate was 20.2 µM; in the assay with HCC-2998 colon, 8.56 µM; in the assay with HOP-62 NSCLC, 20.7 µM; in the assay on HT29 colon, greater than 100 µM; in the assay with MDA-MB-435, 4.88 µM; with OVCAR-3 ovarian, greater than 100 µM. Also, the GI50 with PC-3 prostate is greater than 29 µM; in the assay on RPMI-8226 leukemia, greater than 24.8 µM; in the assay with SK-MEL-28 melanoma, greater than 100 µM; in the assay on T-47D breast, 13.6 µM. Moreover, the TGI with DU-145 prostate is greater than 100 µM; in the assay with HCC-2998 colon it was greater than 100 µM; with HOP-62 NSCLC, 67.1 µM; in the assay with HT29 colon it was greater than 100 µM; in the assay on MDA-MB-435 it was greater than 100 µM; with OVCAR-3 ovarian, greater than 100 µM. The TGI in the assay with PC-3 prostate, in the assay on RPMI-8226 leukemia, in the assay on SK-MEL-28 melanoma and with T-47D breast was greater than 100 µM throughout.
As to `O=S(=O)(NC1CCCCC1)c1ccc2c(c1)OCCOCCOCCOCCO2`, the TGI in the assay with DU-145 prostate, with HCC-2998 colon, in the assay with HOP-62 NSCLC, with HT29 colon, with MDA-MB-435 and in the assay with PC-3 prostate was greater than 100 µM in each case. The TGI in the assay with RPMI-8226 leukemia, in the assay with SK-MEL-28 melanoma and in the assay with T-47D breast was greater than 100 µM in each case.
On to `O=c1c2c([nH]c3nccn13)CCC2`, for which the TGI in the assay on DU-145 prostate, in the assay with HOP-62 NSCLC, with HT29 colon, in the assay with MDA-MB-435, in the assay on OVCAR-3 ovarian and in the assay with PC-3 prostate was greater than 10 µM throughout. Besides, the TGI in the assay with RPMI-8226 leukemia, with SK-MEL-28 melanoma and in the assay on T-47D breast was greater than 10 µM throughout.
With `O=C(O)C(Cc1cnc[nH]1)N1C(=O)c2ccccc2C1=O` (stereo not drawn), the TGI with DU-145 prostate, in the assay with HOP-62 NSCLC, with HT29 colon, in the assay on MDA-MB-435, in the assay with OVCAR-3 ovarian and with PC-3 prostate was greater than 100 µM in each case. Moreover, the TGI in the assay on RPMI-8226 leukemia, in the assay on SK-MEL-28 melanoma and in the assay with T-47D breast was greater than 100 µM throughout.
On to `COc1ccc2c(c1)/C(=C\c1ccncc1)C(=O)N2`, for which the GI50 in the assay on DU-145 prostate was 14.2 µM; with HCC-2998 colon, 19 µM; in the assay with HOP-62 NSCLC, 21.8 µM; with MDA-MB-435, 6.57 µM; in the assay with OVCAR-3 ovarian, 10.4 µM; in the assay with PC-3 prostate, 25 µM. Further, the GI50 in the assay on RPMI-8226 leukemia was 10.2 µM; with T-47D breast, 22.3 µM. The TGI with DU-145 prostate was 34.3 µM; in the assay with HCC-2998 colon it was greater than 100 µM; in the assay on HOP-62 NSCLC it was 41 µM; in the assay with MDA-MB-435, 39.3 µM; in the assay with OVCAR-3 ovarian it was 27.5 µM; with PC-3 prostate it was greater than 100 µM. Besides, the results for the TGI with RPMI-8226 leukemia and with T-47D breast were 77.1 µM and greater than 100 µM, respectively.
On to `COc1cc(/C=C/c2ccc(C)cc2)cc(OC)c1OC`, for which the TGI with DU-145 prostate amounted to 13.7 µM; with HOP-62 NSCLC it was 16.3 µM; in the assay on HT29 colon, 9.45 µM; with MDA-MB-435, 3.14 µM; in the assay on OVCAR-3 ovarian, 6.93 µM; in the assay on PC-3 prostate, 11.4 µM. Also, the figures for the TGI with RPMI-8226 leukemia, in the assay with SK-MEL-28 melanoma and in the assay with T-47D breast were 43.7 µM, 17.7 µM and 20.6 µM, respectively.
With `N#Cc1nc(-c2ccc(F)cc2)oc1S(=O)(=O)N1CCCCC1`, the GI50 in the assay with DU-145 prostate is 1.81 µM; in the assay on HCC-2998 colon, 1.8 µM; in the assay on HOP-62 NSCLC, 5.59 µM; in the assay on HT29 colon, 2.4 µM; in the assay with MDA-MB-435, 1.82 µM; in the assay on OVCAR-3 ovarian, 1.86 µM. The GI50 in the assay on PC-3 prostate is 1.81 µM; in the assay with SK-MEL-28 melanoma, 1.75 µM; in the assay on T-47D breast, 2.13 µM. Further, the TGI was determined as 3.24 µM in the assay with DU-145 prostate; 3.46 µM in the assay on HCC-2998 colon; 25.5 µM in the assay with HOP-62 NSCLC; 5.42 µM in the assay with HT29 colon; 3.75 µM in the assay with MDA-MB-435; 3.48 µM in the assay with OVCAR-3 ovarian. Further, the TGI in the assay on PC-3 prostate was determined as 3.7 µM; in the assay on SK-MEL-28 melanoma, 3.28 µM; in the assay with T-47D breast, 5.44 µM.
As for `CNC(=O)NCC1OC(n2cnc3c(NC(=O)Nc4ccccc4)ncnc32)C(O[Si](C)(C)C(C)(C)C)C1O[Si](C)(C)C(C)(C)C` (stereo not drawn), the GI50 was 2.58 µM with DU-145 prostate; 2.02 µM with HCC-2998 colon; 4.98 µM in the assay on HOP-62 NSCLC; 2.02 µM in the assay with HT29 colon; 3.41 µM in the assay on MDA-MB-435; 2.6 µM with OVCAR-3 ovarian. Moreover, the GI50 in the assay on PC-3 prostate was 2.69 µM; in the assay with RPMI-8226 leukemia, 3.27 µM; in the assay on T-47D breast, 2.87 µM. In addition, the TGI in the assay with DU-145 prostate came to 5.71 µM; with HCC-2998 colon, 3.75 µM; with HOP-62 NSCLC, 17.1 µM; in the assay on HT29 colon, 3.74 µM; in the assay on MDA-MB-435, 29.1 µM; in the assay on OVCAR-3 ovarian it was 5.54 µM. Further, the values for the TGI in the assay with PC-3 prostate, in the assay with RPMI-8226 leukemia and with T-47D breast were greater than 100 µM, greater than 100 µM and 10.3 µM, respectively.
